Results reported in patent US9315490B2, “2,5-substituted pyrimidines” (Grünenthal GmbH, priority 2014, dated 2016).

target: T1, human PDE4B1 (Homo sapiens, UniProt Q07343); assay: cAMP HTRF assay to determine the activity of hPDE4B1; assay type: biochemical; conditions: inhibition of PDE4B at a test concentration of 1 μM
T1 construct: host or cells: Sf9 cells
Outline: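 […], using HTRF quantitation of residual cAMP after 1 mM IBMX stop and 60 min detection. Enzyme was Sf9-expressed human PDE4B1 incubated 30 min at room temperature with 40 nM final cAMP at pH 7.8.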

T1 sequence (Q07343 whole entry): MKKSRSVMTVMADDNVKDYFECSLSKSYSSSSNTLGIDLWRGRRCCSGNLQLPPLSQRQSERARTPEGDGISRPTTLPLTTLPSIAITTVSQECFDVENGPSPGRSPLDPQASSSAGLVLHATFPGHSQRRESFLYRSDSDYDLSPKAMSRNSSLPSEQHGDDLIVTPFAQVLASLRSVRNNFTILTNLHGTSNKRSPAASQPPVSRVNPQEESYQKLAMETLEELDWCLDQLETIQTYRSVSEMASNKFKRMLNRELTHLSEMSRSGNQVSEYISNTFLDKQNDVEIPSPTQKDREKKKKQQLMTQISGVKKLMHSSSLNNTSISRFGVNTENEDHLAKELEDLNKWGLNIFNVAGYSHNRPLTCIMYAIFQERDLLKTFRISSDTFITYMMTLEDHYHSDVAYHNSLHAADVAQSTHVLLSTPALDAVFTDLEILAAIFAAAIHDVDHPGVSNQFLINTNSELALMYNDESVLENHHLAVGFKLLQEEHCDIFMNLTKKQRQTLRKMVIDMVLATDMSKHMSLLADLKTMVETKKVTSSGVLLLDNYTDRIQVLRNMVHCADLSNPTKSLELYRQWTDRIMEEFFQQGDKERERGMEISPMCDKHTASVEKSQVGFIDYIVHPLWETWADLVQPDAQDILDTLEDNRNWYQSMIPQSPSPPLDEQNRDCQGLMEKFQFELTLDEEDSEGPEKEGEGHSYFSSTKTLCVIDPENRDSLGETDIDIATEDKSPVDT

Row | Structure (SMILES) | inhibition at 1 µM [%]
1 | Cc1cccc(-c2cnc(-n3cc(S(C)(=O)=O)c4ccc(C(=O)N5CCOCC5)cc43)nc2)c1 [Example 156, (3-(Methylsulfonyl)-1-(5-(m-tolyl)pyrimidin-2-yl)-1H-indol-6-yl)(morpholino) methanone] | 58
2 | COc1cccc(-c2cnc(-n3cc(S(C)(=O)=O)c4ccc(C(=O)N5CCOCC5)cc43)nc2)c1 [Example 159, (1-(5-(3-Methoxyphenyl)pyrimidin-2-yl)-3-(methylsulfonyl)-1H-indol-6-yl)(morpholino)methanone] | 98
3 | COc1ccc(F)c(-c2cnc(-n3cc(S(C)(=O)=O)c4ccc(C(=O)N5CCOCC5)cc43)nc2)c1 [Example 162, (1-(5-(2-Fluoro-5-methoxyphenyl)pyrimidin-2-yl)-3-(methylsulfonyl)-1H-indol-6-yl)(morpholino)methanone] | 95
4 | Cc1cccc(-c2cnc(-n3cc(S(C)(=O)=O)c4ccc(C(=O)N5CC[C@@H](N)C5)cc43)nc2)c1 [Example 167, (R)-(3-Aminopyrrolidin-1-yl)(3-(methylsulfonyl)-1-(5-(m-tolyl)pyrimidin-2-yl)-1H-indol-6-yl)methanone] | 87
5 | CC(O)CN(C)C(=O)c1ccc2c([S+](C)[O-])cn(-c3ncc(-c4ccccc4F)cn3)c2c1 (stereo not shown) [Example 168, 1-(5-(2-Fluorophenyl)pyrimidin-2-yl)-N-(2-hydroxypropyl)-N-methyl-3-(methylsulfinyl)-1H-indole-6-carboxamide] | 43
6 | CN(C(=O)c1ccc2c([S+](C)[O-])cn(-c3ncc(-c4ccccc4F)cn3)c2c1)C1(CO)CC1 (stereo not shown) [Example 170, 1-(5-(2-Fluorophenyl)pyrimidin-2-yl)-N-(1-(hydroxymethyl)cyclopropyl)-N-methyl-3-(methylsulfinyl)-1H-indole-6-carboxamide] | 54
7 | CN(CC(C)(C)O)C(=O)c1ccc2c([S+](C)[O-])cn(-c3ncc(-c4ccccc4F)cn3)c2c1 (stereo not shown) [Example 171, 1-(5-(2-Fluorophenyl)pyrimidin-2-yl)-N-(2-hydroxy-2-methylpropyl)-N-methyl-3-(methylsulfinyl)-1H-indole-6-carboxamide] | 38
8 | CN(CC(=O)O)C(=O)c1ccc2c([S+](C)[O-])cn(-c3ncc(-c4ccccc4F)cn3)c2c1 (stereo not shown) [Example 173, 2-(1-(5-(2-Fluorophenyl)pyrimidin-2-yl)-N-methyl-3-(methylsulfinyl)-1H-indole-6-carboxamido)acetic acid] | 70
9 | CN(CC(N)=O)C(=O)c1ccc2c([S+](C)[O-])cn(-c3ncc(-c4ccccc4F)cn3)c2c1 (stereo not shown) [Example 174, N-(2-Amino-2-oxoethyl)-1-(5-(2-fluorophenyl)pyrimidin-2-yl)-N-methyl-3-(methylsulfinyl)-1H-indole-6-carboxamide] | 105
10 | C[S+]([O-])c1cn(-c2ncc(-c3ccccc3F)cn2)c2cc(C(=O)N3CC4CC3CN4)ccc12 (stereo not shown) [Example 175, 2,5-Diazabicyclo[2.2.1]heptan-2-yl(1-(5-(2-fluorophenyl)pyrimidin-2-yl)-3-(methylsulfinyl)-1H-indol-6-yl)methanone] | 114
11 | COC(=O)CN(C)C(=O)c1ccc2c([S+](C)[O-])cn(-c3ncc(-c4ccccc4F)cn3)c2c1 (stereo not shown) [Example 177, Methyl 2-(1-(5-(2-fluorophenyl)pyrimidin-2-yl)-N-methyl-3-(methylsulfinyl)-1H-indole-6-carboxamido)acetate] | 39
12 | C[C@H]1COCCN1C(=O)c1ccc2c([S+](C)[O-])cn(-c3ncc(-c4ccccc4F)cn3)c2c1 (stereo partly drawn) [Example 178, (1-(5-(2-Fluorophenyl)pyrimidin-2-yl)-3-(methylsulfinyl)-1H-indol-6-yl)((S)-3-methylmorpholino)methanone] | 88
13 | C[C@@H]1COCCN1C(=O)c1ccc2c([S+](C)[O-])cn(-c3ncc(-c4ccccc4F)cn3)c2c1 (stereo partly drawn) [Example 179, (1-(5-(2-Fluorophenyl)pyrimidin-2-yl)-3-(methylsulfinyl)-1H-indol-6-yl)((R)-3-methylmorpholino)methanone] | 90
14 | Cc1cccc(-c2cnc(-n3cc([S+](C)[O-])c4ccc(C(=O)N5CCOCC5)cc43)nc2)n1 (stereo not shown) [Example 180, (1-(5-(6-Methylpyridin-2-yl)pyrimidin-2-yl)-3-(methylsulfinyl)-1H-indol-6-yl)(morpholino)methanone] | 99
15 | C[S+]([O-])c1cn(-c2ncc(-c3cc(C#N)ccn3)cn2)c2cc(C(=O)N3CCOCC3)ccc12 (stereo not shown) [Example 181, 2-(2-(3-(Methylsulfinyl)-6-(morpholine-4-carbonyl)-1H-indol-1-yl)pyrimidin-5-yl)isonicotinonitrile] | 96
16 | C[S+]([O-])c1cn(-c2ncc(-c3cc(F)ccn3)cn2)c2cc(C(=O)N3CCOCC3)ccc12 (stereo not shown) [Example 182, (1-(5-(4-Fluoropyridin-2-yl)pyrimidin-2-yl)-3-(methylsulfinyl)-1H-indol-6-yl)(morpholino)methanone] | 95

Row | Structure (SMILES) | inhibition at 1 µM [%]
17 | C[S+]([O-])c1cn(-c2ncc(-c3cccc(C#N)n3)cn2)c2cc(C(=O)N3CCOCC3)ccc12 (stereo not shown) [Example 183, 6-(2-(3-(Methylsulfinyl)-6-(morpholine-4-carbonyl)-1H-indol-1-yl)pyrimidin-5-yl)picolinonitrile] | 60
18 | C[S+]([O-])c1cn(-c2ncc(-c3cccc(F)n3)cn2)c2cc(C(=O)N3CCOCC3)ccc12 (stereo not shown) [Example 185, (1-(5-(6-Fluoropyridin-2-yl)pyrimidin-2-yl)-3-(methylsulfinyl)-1H-indol-6-yl)(morpholino)methanone] | 97
19 | C[S+]([O-])c1cn(-c2ncc(-c3ccccc3)cn2)c2cc(C(=O)N3CC[C@@H](N)C3)ccc12 (stereo partly drawn) [Example 223, ((R)-3-Aminopyrrolidin-1-yl)(3-(methylsulfinyl)-1-(5-phenylpyrimidin-2-yl)-1H-indol-6-yl)methanone] | 89
20 | Cc1cccc(-c2cnc(-n3cc([S+](C)[O-])c4ccc(C(=O)N5CC[C@@H](N)C5)cc43)nc2)c1 (stereo partly drawn) [Example 224, ((R)-3-Aminopyrrolidin-1-yl)(3-(methylsulfinyl)-1-(5-(m-tolyl)pyrimidin-2-yl)-1H-indol-6-yl)methanone] | 102
21 | C[S+]([O-])c1cn(-c2ncc(-c3cc(C#N)ccc3F)cn2)c2cc(C(=O)N3CC[C@@H](N)C3)ccc12 (stereo partly drawn) [Example 225, 3-(2-(6-((R)-3-Aminopyrrolidine-1-carbonyl)-3-(methylsulfinyl)-1H-indol-1-yl)pyrimidin-5-yl)-4-fluorobenzonitrile] | 92
22 | COc1ccc(F)c(-c2cnc(-n3cc([S+](C)[O-])c4ccc(C(=O)N5CC[C@@H](N)C5)cc43)nc2)c1 (stereo partly drawn) [Example 226, ((R)-3-Aminopyrrolidin-1-yl)(1-(5-(2-fluoro-5-methoxyphenyl)pyrimidin-2-yl)-3-(methylsulfinyl)-1H-indol-6-yl)methanone] | 99
23 | Cc1ccc(F)c(-c2cnc(-n3cc([S+](C)[O-])c4ccc(C(=O)N5CC[C@@H](N)C5)cc43)nc2)c1 (stereo partly drawn) [Example 227, ((R)-3-Aminopyrrolidin-1-yl)(1-(5-(2-fluoro-5-methylphenyl)pyrimidin-2-yl)-3-(methylsulfinyl)-1H-indol-6-yl)methanone] | 108
24 | CS(=O)(=O)c1cn(-c2ncc(-c3ccccc3)cn2)c2cc(C(=O)N3CC[C@@H](N)C3)ccc12 [Example 228, (R)-(3-Aminopyrrolidin-1-yl)(3-(methylsulfonyl)-1-(5-phenylpyrimidin-2-yl)-1H-indol-6-yl)methanone] | 104
25 | CS(=O)(=O)c1cn(-c2ncc(-c3cc(C#N)ccc3F)cn2)c2cc(C(=O)N3CC[C@@H](N)C3)ccc12 [Example 229, (R)-3-(2-(6-(3-Aminopyrrolidine-1-carbonyl)-3-(methylsulfonyl)-1H-indol-1-yl)pyrimidin-5-yl)-4-fluorobenzonitrile] | 106
26 | COc1ccc(F)c(-c2cnc(-n3cc(S(C)(=O)=O)c4ccc(C(=O)N5CC[C@@H](N)C5)cc43)nc2)c1 [Example 230, (R)-(3-Aminopyrrolidin-1-yl)(1-(5-(2-fluoro-5-methoxyphenyl)pyrimidin-2-yl)-3-(methylsulfonyl)-1H-indol-6-yl)methanone] | 110
27 | Cc1ccc(F)c(-c2cnc(-n3cc(S(C)(=O)=O)c4ccc(C(=O)N5CC[C@@H](N)C5)cc43)nc2)c1 [Example 231, (R)-(3-Aminopyrrolidin-1-yl)(1-(5-(2-fluoro-5-methylphenyl)pyrimidin-2-yl)-3-(methylsulfonyl)-1H-indol-6-yl)methanone] | 121
28 | C[S+]([O-])c1cn(-c2ncc(-c3ccccc3)cn2)c2cc(C(=O)N3C[C@H]4C[C@@H]3CN4)ccc12 (stereo partly drawn) [Example 232, (1R,4R)-2,5-Diazabicyclo[2.2.1]heptan-2-yl(3-(methylsulfinyl)-1-(5-phenylpyrimidin-2-yl)-1H-indol-6-yl)methanone] | 57
29 | C[S+]([O-])c1cn(-c2ncc(-c3ccccc3)cn2)c2cc(C(=O)N3C[C@@H]4C[C@H]3CN4)ccc12 (stereo partly drawn) [Example 233, (1S,4S)-2,5-Diazabicyclo[2.2.1]heptan-2-yl(3-(methylsulfinyl)-1-(5-phenylpyrimidin-2-yl)-1H-indol-6-yl)methanone] | 103
30 | C[S+]([O-])c1cn(-c2ncc(-c3ccccc3)cn2)c2cc(C(=O)N3C[C@H]4C[C@@H]3CO4)ccc12 (stereo partly drawn) [Example 234, (1R,4R)-2-Oxa-5-azabicyclo[2.2.1]heptan-5-yl(3-(methylsulfinyl)-1-(5-phenylpyrimidin-2-yl)-1H-indol-6-yl)methanone] | 91
31 | CS(=O)(=O)c1cn(-c2ncc(-c3ccccc3)cn2)c2cc(C(=O)N3C[C@@H]4C[C@H]3CN4)ccc12 [Example 236, (1S,4S)-2,5-Diazabicyclo[2.2.1]heptan-2-yl(3-(methylsulfonyl)-1-(5-phenylpyrimidin-2-yl)-1H-indol-6-yl)methanone] | 85
